Test results reported in the NIST ThermoML archive (doi:10.1021/je101014q).

Assay: xn = mol fraction of the nth substance listed
Conditions: 101 kPa, Liquid, Cone and plate viscometry

CC(=O)[O-].CCCC[N+](CC)(CC)CC [N,N,N-triethylbutanaminium acetate] + O
viscosity [mPa·s]
Conditions	x1 = 0.17	x1 = 0.33	x1 = 0.5	x1 = 1
298.2 K	13	66	79	439
313.2 K	10.9	39.4	55.5	306.7
333.2 K	5.15	12.6	15.6	47.3
